# According to patent US20220389061A1, “IMMUNOMODULATORS” (priority 2019, published 2022):
# Starred links: 1 amine or outer side, 2 acyl side, 3 side chain; linkers in the order of their positions; H or OH if unused. Positions of bridges follow the written chain, without caps; N, C: chain ends. Non-standard residues stand in square brackets, D forms with d. Residues, ends and D or L forms follow the SMILES beside them. Groups on a side chain read outwards from the residue. *: point of attachment. Trp(1-CH2COOH) = N[C@@H](Cc1cn(CC(=O)O)c2ccccc12)C(=O)O; X23 = COc1cc(NC(=S)*)ccc1-n1cnc(Cl)c1; X88 = Cc1cc([N+](=O)[O-])ccc1NC(=S)*; Hyp = O=C(O)[C@@H]1C[C@@H](O)CN1; X70 = Cc1coc2c(F)cc(NC(=S)*)cc12; X11 = S=C(Nc1ccccc1-c1ccccc1)*; NMeNle = CCCC[C@H](NC)C(=O)O; X16 = S=C(Nc1ccc2c(c1)OCO2)*; X4 = S=C(Nc1ccc2c(c1)OCCO2)*; X2 = c1ccc(-c2ccccc2N*)cc1; X5 = S=C(Nc1cccc2ccccc12)*; X64 = COc1cc(OC)c(N*)cc1Cl; X82 = S=C(Nc1cccc2nsnc12)*; X90 = Fc1cc(F)c(N*)c(F)c1; NMeA = CN[C@@H](C)C(=O)O; X71 = c1cc2c(cc1N*)OCCO2; Dab = NCC[C@H](N)C(=O)O; Dap = NC[C@H](N)C(=O)O; X21 = S=C(Nc1ccccn1)*; X51 = Cc1cccc(Cl)c1N*; CO = O=C([*:1])[*:2]
# Target: T1, PD-1/PD-L1 (Homo sapiens, UniProt Q9NZQ7)
# T1 construct: TVMV protease site linker (C); made in house; host or cells: HEK293T cells
# T1 sequence (Q9NZQ7 18-239): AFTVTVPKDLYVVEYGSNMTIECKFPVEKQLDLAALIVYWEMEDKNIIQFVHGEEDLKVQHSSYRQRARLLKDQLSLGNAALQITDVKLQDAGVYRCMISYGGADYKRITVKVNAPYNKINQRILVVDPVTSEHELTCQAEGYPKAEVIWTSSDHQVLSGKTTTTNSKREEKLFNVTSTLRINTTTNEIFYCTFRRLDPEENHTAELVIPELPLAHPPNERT
# Assay: PD-1/PD-L1 Homogenous Time-Resolved Fluorescence (HTRF) binding assay
# Settings: not given
# How it was run: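 HTRF read-out using europium cryptate anti-Ig (1 nM) and APC anti-His (20 nM) on extracellular-domain fusion proteins in dPBS/0.1% BSA/0.05% Tween-20. Inhibitor first incubated 15 min with 10 nM PD-L1-His, followed by 20 nM PD-1-Ig for another 15 min.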
row,SMILES,IC50 [nM]
1,CCCC[C@H]1C(=O)N(C)[C@@H](CCCC)C(=O)N[C@@H](CC(C)C)C(=O)N[C@H](C(=O)NCC(N)=O)CSCC(=O)N[C@@H](Cc2ccc(O)cc2)C(=O)N(C)[C@@H](C)C(=O)N[C@@H](CC(N)=O)C(=O)N2CCC[C@H]2C(=O)N[C@@H](CNC(=O)Nc2ccccc2-c2ccccc2)C(=O)N[C@@H](CC(C)C)C(=O)N2C[C@H](O)C[C@H]2C(=O)N[C@@H](Cc2c[nH]c3ccccc23)C(=O)N[C@@H](CCN)C(=O)N[C@@H](Cc2cn(CC(=O)O)c3ccccc23)C(=O)N1C [Example 1062] ({CH2CO}-Y[NMeA]NP[Dap]([CO-X2])L[Hyp]W[Dab][Trp(1-CH2COOH)][NMeNle][NMeNle]LCG-NH2; thioether N-14),3.4

# Same assay, conditions: PD-L1-His 10 nM pre-incubated with inhibitor, PD-1-Ig 20 nM; read-out: HTRF IC50
row,SMILES,IC50 [nM]
1,CCCC[C@H]1C(=O)N(C)[C@@H](CCCC)C(=O)N[C@@H](CC(C)C)C(=O)N[C@H](C(=O)NCC(N)=O)CSCC(=O)N[C@@H](Cc2ccc(O)cc2)C(=O)N(C)[C@@H](C)C(=O)N[C@@H](CC(N)=O)C(=O)N2CCC[C@H]2C(=O)N[C@@H](CNC(=S)Nc2ccc(-n3cnc(Cl)c3)c(OC)c2)C(=O)N[C@@H](CC(C)C)C(=O)N2C[C@H](O)C[C@H]2C(=O)N[C@@H](Cc2c[nH]c3ccccc23)C(=O)N[C@@H](CCN)C(=O)N[C@@H](Cc2cn(CC(=O)O)c3ccccc23)C(=O)N1C [Example 1059] ({CH2CO}-Y[NMeA]NP[Dap](X23)L[Hyp]W[Dab][Trp(1-CH2COOH)][NMeNle][NMeNle]LCG-NH2; thioether N-14),3.5
2,CCCC[C@H]1C(=O)N(C)[C@@H](CCCC)C(=O)N[C@@H](CC(C)C)C(=O)N[C@H](C(=O)NCC(N)=O)CSCC(=O)N[C@@H](Cc2ccc(O)cc2)C(=O)N(C)[C@@H](C)C(=O)N[C@@H](CC(N)=O)C(=O)N2CCC[C@H]2C(=O)N[C@@H](CNC(=O)Nc2ccc3c(c2)OCCO3)C(=O)N[C@@H](CC(C)C)C(=O)N2C[C@H](O)C[C@H]2C(=O)N[C@@H](Cc2c[nH]c3ccccc23)C(=O)N[C@@H](CCN)C(=O)N[C@@H](Cc2cn(CC(=O)O)c3ccccc23)C(=O)N1C [Example 3042] ({CH2CO}-Y[NMeA]NP[Dap]([CO-X71])L[Hyp]W[Dab][Trp(1-CH2COOH)][NMeNle][NMeNle]LCG-NH2; thioether N-14),2.5
3,CCCC[C@H]1C(=O)N(C)[C@@H](CCCC)C(=O)N[C@@H](CC(C)C)C(=O)N[C@H](C(=O)NCC(N)=O)CSCC(=O)N[C@@H](Cc2ccc(O)cc2)C(=O)N(C)[C@@H](C)C(=O)N[C@@H](CC(N)=O)C(=O)N2CCC[C@H]2C(=O)N[C@@H](CNC(=O)Nc2c(F)cc(F)cc2F)C(=O)N[C@@H](CC(C)C)C(=O)N2C[C@H](O)C[C@H]2C(=O)N[C@@H](Cc2c[nH]c3ccccc23)C(=O)N[C@@H](CCNC(=O)Nc2c(C)cccc2Cl)C(=O)N[C@@H](Cc2cn(CC(=O)O)c3ccccc23)C(=O)N1C [Example 1114] ({CH2CO}-Y[NMeA]NP[Dap]([CO-X90])L[Hyp]W[Dab]([CO-X51])[Trp(1-CH2COOH)][NMeNle][NMeNle]LCG-NH2; thioether N-14),2.5
4,CCCC[C@H]1C(=O)N(C)[C@@H](CCCC)C(=O)N[C@@H](CC(C)C)C(=O)N[C@H](C(=O)NCC(N)=O)CSCC(=O)N[C@@H](Cc2ccc(O)cc2)C(=O)N(C)[C@@H](C)C(=O)N[C@@H](CC(N)=O)C(=O)N2CCC[C@H]2C(=O)N[C@@H](CNC(=S)Nc2cc(F)c3occ(C)c3c2)C(=O)N[C@@H](CC(C)C)C(=O)N2C[C@H](O)C[C@H]2C(=O)N[C@@H](Cc2c[nH]c3ccccc23)C(=O)N[C@@H](CCN)C(=O)N[C@@H](Cc2cn(CC(=O)O)c3ccccc23)C(=O)N1C [Example 3054] ({CH2CO}-Y[NMeA]NP[Dap](X70)L[Hyp]W[Dab][Trp(1-CH2COOH)][NMeNle][NMeNle]LCG-NH2; thioether N-14),1.3
5,CCCC[C@H]1C(=O)N(C)[C@@H](CCCC)C(=O)N[C@@H](CC(C)C)C(=O)N[C@H](C(=O)NCC(N)=O)CSCC(=O)N[C@@H](Cc2ccc(O)cc2)C(=O)N(C)[C@@H](C)C(=O)N[C@@H](CC(N)=O)C(=O)N2CCC[C@H]2C(=O)N[C@@H](CNC(=S)Nc2ccc3c(c2)OCO3)C(=O)N[C@@H](CC(C)C)C(=O)N2C[C@H](O)C[C@H]2C(=O)N[C@@H](Cc2c[nH]c3ccccc23)C(=O)N[C@@H](CCN)C(=O)N[C@@H](Cc2cn(CC(=O)O)c3ccccc23)C(=O)N1C [Example 3065] ({CH2CO}-Y[NMeA]NP[Dap](X16)L[Hyp]W[Dab][Trp(1-CH2COOH)][NMeNle][NMeNle]LCG-NH2; thioether N-14),0.98
6,CCCC[C@H]1C(=O)N(C)[C@@H](CCCC)C(=O)N[C@@H](CC(C)C)C(=O)N[C@H](C(=O)NCC(N)=O)CSCC(=O)N[C@@H](Cc2ccc(O)cc2)C(=O)N(C)[C@@H](C)C(=O)N[C@@H](CC(N)=O)C(=O)N2CCC[C@H]2C(=O)N[C@@H](CNC(=S)Nc2ccc([N+](=O)[O-])cc2C)C(=O)N[C@@H](CC(C)C)C(=O)N2C[C@H](O)C[C@H]2C(=O)N[C@@H](Cc2c[nH]c3ccccc23)C(=O)N[C@@H](CCN)C(=O)N[C@@H](Cc2cn(CC(=O)O)c3ccccc23)C(=O)N1C [Example 1072] ({CH2CO}-Y[NMeA]NP[Dap](X88)L[Hyp]W[Dab][Trp(1-CH2COOH)][NMeNle][NMeNle]LCG-NH2; thioether N-14),4.9
7,CCCC[C@H]1C(=O)N(C)[C@@H](CCCC)C(=O)N[C@@H](CC(C)C)C(=O)N[C@H](C(=O)NCC(N)=O)CSCC(=O)N[C@@H](Cc2ccc(O)cc2)C(=O)N(C)[C@@H](C)C(=O)N[C@@H](CC(N)=O)C(=O)N2CCC[C@H]2C(=O)N[C@@H](CNC(=S)Nc2ccccc2-c2ccccc2)C(=O)N[C@@H](CC(C)C)C(=O)N2C[C@H](O)C[C@H]2C(=O)N[C@@H](Cc2c[nH]c3ccccc23)C(=O)N[C@@H](CCNC(=S)Nc2ccccc2-c2ccccc2)C(=O)N[C@@H](Cc2cn(CC(=O)O)c3ccccc23)C(=O)N1C [Example 1128] ({CH2CO}-Y[NMeA]NP[Dap](X11)L[Hyp]W[Dab](X11)[Trp(1-CH2COOH)][NMeNle][NMeNle]LCG-NH2; thioether N-14),0.6
8,CCCC[C@H]1C(=O)N(C)[C@@H](CCCC)C(=O)N[C@@H](CC(C)C)C(=O)N[C@H](C(=O)NCC(N)=O)CSCC(=O)N[C@@H](Cc2ccc(O)cc2)C(=O)N(C)[C@@H](C)C(=O)N[C@@H](CC(N)=O)C(=O)N2CCC[C@H]2C(=O)N[C@@H](CN)C(=O)N[C@@H](CC(C)C)C(=O)N2C[C@H](O)C[C@H]2C(=O)N[C@@H](Cc2c[nH]c3ccccc23)C(=O)N[C@@H](CCNC(=S)Nc2cccc3ccccc23)C(=O)N[C@@H](Cc2cn(CC(=O)O)c3ccccc23)C(=O)N1C [Example 3029] ({CH2CO}-Y[NMeA]NP[Dap]L[Hyp]W[Dab](X5)[Trp(1-CH2COOH)][NMeNle][NMeNle]LCG-NH2; thioether N-14),0.1
9,CCCC[C@H]1C(=O)N(C)[C@@H](CCCC)C(=O)N[C@@H](CC(C)C)C(=O)N[C@H](C(=O)NCC(N)=O)CSCC(=O)N[C@@H](Cc2ccc(O)cc2)C(=O)N(C)[C@@H](C)C(=O)N[C@@H](CC(N)=O)C(=O)N2CCC[C@H]2C(=O)N[C@@H](CNC(=S)Nc2ccccn2)C(=O)N[C@@H](CC(C)C)C(=O)N2C[C@H](O)C[C@H]2C(=O)N[C@@H](Cc2c[nH]c3ccccc23)C(=O)N[C@@H](CCNC(=S)Nc2ccccn2)C(=O)N[C@@H](Cc2cn(CC(=O)O)c3ccccc23)C(=O)N1C [Example 1021] ({CH2CO}-Y[NMeA]NP[Dap](X21)L[Hyp]W[Dab](X21)[Trp(1-CH2COOH)][NMeNle][NMeNle]LCG-NH2; thioether N-14),4.2
10,CCCC[C@H]1C(=O)N(C)[C@@H](CCCC)C(=O)N[C@@H](CC(C)C)C(=O)N[C@H](C(=O)NCC(N)=O)CSCC(=O)N[C@@H](Cc2ccc(O)cc2)C(=O)N(C)[C@@H](C)C(=O)N[C@@H](CC(N)=O)C(=O)N2CCC[C@H]2C(=O)N[C@@H](CNC(=O)Nc2cc(Cl)c(OC)cc2OC)C(=O)N[C@@H](CC(C)C)C(=O)N2C[C@H](O)C[C@H]2C(=O)N[C@@H](Cc2c[nH]c3ccccc23)C(=O)N[C@@H](CCNC(=O)Nc2cc(Cl)c(OC)cc2OC)C(=O)N[C@@H](Cc2cn(CC(=O)O)c3ccccc23)C(=O)N1C [Example 1082] ({CH2CO}-Y[NMeA]NP[Dap]([CO-X64])L[Hyp]W[Dab]([CO-X64])[Trp(1-CH2COOH)][NMeNle][NMeNle]LCG-NH2; thioether N-14),1.5
11,CCCC[C@H]1C(=O)N(C)[C@@H](CCCC)C(=O)N[C@@H](CC(C)C)C(=O)N[C@H](C(=O)NCC(N)=O)CSCC(=O)N[C@@H](Cc2ccc(O)cc2)C(=O)N(C)[C@@H](C)C(=O)N[C@@H](CC(N)=O)C(=O)N2CCC[C@H]2C(=O)N[C@@H](CNC(=S)Nc2ccc3c(c2)OCCO3)C(=O)N[C@@H](CC(C)C)C(=O)N2C[C@H](O)C[C@H]2C(=O)N[C@@H](Cc2c[nH]c3ccccc23)C(=O)N[C@@H](CCNC(=S)Nc2ccc3c(c2)OCCO3)C(=O)N[C@@H](Cc2cn(CC(=O)O)c3ccccc23)C(=O)N1C [Example 3069] ({CH2CO}-Y[NMeA]NP[Dap](X4)L[Hyp]W[Dab](X4)[Trp(1-CH2COOH)][NMeNle][NMeNle]LCG-NH2; thioether N-14),3.1
12,CCCC[C@H]1C(=O)N(C)[C@@H](CCCC)C(=O)N[C@@H](CC(C)C)C(=O)N[C@H](C(=O)NCC(N)=O)CSCC(=O)N[C@@H](Cc2ccc(O)cc2)C(=O)N(C)[C@@H](C)C(=O)N[C@@H](CC(N)=O)C(=O)N2CCC[C@H]2C(=O)N[C@@H](CNC(=S)Nc2cccc3nsnc23)C(=O)N[C@@H](CC(C)C)C(=O)N2C[C@H](O)C[C@H]2C(=O)N[C@@H](Cc2c[nH]c3ccccc23)C(=O)N[C@@H](CCN)C(=O)N[C@@H](Cc2cn(CC(=O)O)c3ccccc23)C(=O)N1C [Example 3016] ({CH2CO}-Y[NMeA]NP[Dap](X82)L[Hyp]W[Dab][Trp(1-CH2COOH)][NMeNle][NMeNle]LCG-NH2; thioether N-14),0.6
